In ChEMBL document CHEMBL4837240 (J Med Chem, 2021):
Calls of active or inactive are those of the source. The calls are words filed in the database; no cut-off is given here.

Columns and labels:
[1] = target: T1, Vascular endothelial growth factor receptor 1 (Mus musculus) (UniProt P35969); experiment: In vivo inhibition of VEGFR1 phosphorylation in BALB/c mouse xenografted with MDA-MB-231 cells at 25 mg/kg, po by immunohistochemistry analysis; assay type: functional, organism-based
T1 sequence (whole entry): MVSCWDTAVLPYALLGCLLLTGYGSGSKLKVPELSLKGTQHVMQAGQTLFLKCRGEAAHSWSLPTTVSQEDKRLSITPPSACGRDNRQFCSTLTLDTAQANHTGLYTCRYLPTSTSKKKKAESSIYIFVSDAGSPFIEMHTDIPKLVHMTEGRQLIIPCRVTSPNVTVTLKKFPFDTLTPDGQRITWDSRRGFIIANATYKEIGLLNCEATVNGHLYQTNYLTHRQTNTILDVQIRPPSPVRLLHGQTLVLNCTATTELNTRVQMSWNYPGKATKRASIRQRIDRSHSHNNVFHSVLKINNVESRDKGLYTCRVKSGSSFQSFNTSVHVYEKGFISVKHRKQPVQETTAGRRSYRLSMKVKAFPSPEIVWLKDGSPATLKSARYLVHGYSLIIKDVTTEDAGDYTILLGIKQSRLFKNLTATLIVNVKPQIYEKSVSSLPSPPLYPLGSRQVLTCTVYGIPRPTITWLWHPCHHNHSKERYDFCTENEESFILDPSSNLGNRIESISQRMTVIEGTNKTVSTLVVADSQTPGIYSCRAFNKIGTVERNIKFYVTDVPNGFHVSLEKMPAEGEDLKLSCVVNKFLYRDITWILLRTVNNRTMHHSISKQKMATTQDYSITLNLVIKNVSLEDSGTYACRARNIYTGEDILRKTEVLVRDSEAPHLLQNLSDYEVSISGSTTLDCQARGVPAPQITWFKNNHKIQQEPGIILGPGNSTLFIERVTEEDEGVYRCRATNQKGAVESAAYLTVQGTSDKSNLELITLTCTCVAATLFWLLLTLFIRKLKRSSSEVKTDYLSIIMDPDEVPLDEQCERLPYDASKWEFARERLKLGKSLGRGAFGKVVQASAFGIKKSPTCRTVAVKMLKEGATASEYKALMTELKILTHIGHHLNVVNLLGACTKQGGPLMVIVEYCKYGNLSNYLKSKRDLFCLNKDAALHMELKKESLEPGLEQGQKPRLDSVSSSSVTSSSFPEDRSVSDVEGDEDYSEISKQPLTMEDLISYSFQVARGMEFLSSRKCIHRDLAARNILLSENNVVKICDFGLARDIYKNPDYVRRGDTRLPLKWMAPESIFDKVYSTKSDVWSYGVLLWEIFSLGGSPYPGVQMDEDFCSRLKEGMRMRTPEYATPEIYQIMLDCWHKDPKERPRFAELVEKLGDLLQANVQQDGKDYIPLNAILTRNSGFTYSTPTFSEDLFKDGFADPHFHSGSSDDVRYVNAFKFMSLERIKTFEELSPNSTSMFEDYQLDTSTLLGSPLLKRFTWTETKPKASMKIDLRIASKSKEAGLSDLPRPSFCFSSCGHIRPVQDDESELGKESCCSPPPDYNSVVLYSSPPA

[2] = Toxicity in po dosed BALB/c mouse xenografted with MDA-MB-231 cells assessed as maximum tolerated dose; assay type: organism-based; conditions: in vivo
MDA-MB-231 [3] = experiment: Antimetastatic activity against human MDA-MB-231 cells injected into vein of BALB/c mouse lung metastatic model assessed as less lung metastatic nodules at 50 mg/kg, po once a day measured on day 21; assay type: functional, organism-based; conditions: time 21.0 day
MDA-MB-436 [4] = experiment: Antimigratory activity against human MDA-MB-436 cells assessed as reduction in cell migration incubated for 12 hrs by transwell assay; assay type: functional, cell-based
[5] = Toxicity in BALB/c mouse xenografted with MDA-MB-231 cells assessed as change in kidney at 300 mg/kg, po by hematoxylin and eosin staining based analysis; assay type: organism-based; conditions: in vivo
Mus musculus [6] = experiment: Decrease in p-VEGFR3 level in BALB/c mouse xenografted with MDA-MB-231 cells in tumor tissue at 25 mg/kg, po by immunohistochemistry analysis; assay type: functional, organism-based
[7] = target: Tyrosine-protein kinase BTK (Homo sapiens, UniProt Q06187); experiment: Inhibition of human BTK assessed as residual kinase activity at 1 uM relative to control
MDA-MB-231 [8] = experiment: Induction of apoptosis in human MDA-MB-231 cells assessed as downregulation of Bcl2 expression up to 10 uM incubated for 24 hrs by Western blotting analysis; assay type: functional, cell-based; conditions: dose microM <=10, time 24.0 hrs
Mus musculus [9] = experiment: Decrease in LYVE-1 level in BALB/c mouse xenografted with MDA-MB-231 cells in tumor tissue at 25 mg/kg, po by immunohistochemistry analysis; assay type: functional, organism-based
MDA-MB-436 [10] = experiment: Induction of apoptosis in human MDA-MB-436 cells assessed as downregulation of Bcl2 expression up to 10 uM incubated for 24 hrs by Western blotting analysis; assay type: functional, cell-based; conditions: dose microM <=10, time 24.0 hrs
MDA-MB-436 [11] = experiment: Downregulation of MMP2 protein expression in human MDA-MB-436 cells up to 10 uM incubated for 24 hrs by Western blot analysis; assay type: functional, cell-based; conditions: dose microM <=10, time 24.0 hrs
[12] = Toxicity in BALB/c mouse xenografted with MDA-MB-231 cells assessed as ALT level in blood at 300 mg/kg, po; assay type: organism-based; conditions: in vivo
HDLEC = experiment: Antimigratory activity against VEGF-C-induced human dermal lymphatic endothelial cells assessed as cell migration at 100 nM incubated for 12 hrs by inverted microscopy based by transwell assay; assay type: functional, tissue-based
MDA-MB-436 [13] = experiment: Induction of apoptosis in human MDA-MB-436 cells assessed as upregulation of Bax expression up to 10 uM incubated for 24 hrs by Western blotting analysis; assay type: functional, cell-based; conditions: dose microM <=10, time 24.0 hrs
[14] = target: Vascular endothelial growth factor receptor 3 (Mus musculus) (UniProt P35917); experiment: In vivo inhibition of VEGFR3 phosphorylation in BALB/c mouse xenografted with MDA-MB-231 cells assessed as decrease in STAT5 phosphorylation at 25 mg/kg, po by immunohistochemistry analysis; assay type: functional, organism-based
Danio rerio = species on record: Danio rerio; experiment: Antiangiogenesis activity against transgenic zebrafish with GFP-labeled vascular endothelial cells assessed as inhibition of subintestinal vessels at 10 uM incubated for 24 hrs by fluorescence microscopy; assay type: functional, organism-based
MDA-MB-436 [15] = experiment: Induction of apoptosis in human MDA-MB-436 cells assessed as accumulation at G1 phase incubated for 48 hrs by flow cytometry; assay type: functional, cell-based
[16] = target: Vascular endothelial growth factor receptor 3 (Homo sapiens, UniProt P35916); experiment: Inhibition of VEGFR3 in human dermal lymphatic endothelial cells assessed as inhibition of AKT phosphorylation incubated for 24 hrs by Western blot analysis; assay type: tissue-based; conditions: HDLEC
Mus musculus [17] = experiment: Upregulation of E-cadherin protein expression human MDA-MB-231 cells injected into vein of BALB/c mouse lung metastatic model at 50 mg/kg, po once a day measured on day 21 by […]; assay type: functional, organism-based
[18] = Clearance in Sprague-Dawley rat at 1 mg/kg, iv by LC-MS analysis; assay type: ADME, organism-based; conditions: in vivo
Mus musculus [19] = experiment: Decrease in Ki-67 level in BALB/c mouse xenografted with MDA-MB-231 cells in tumor tissue at 25 mg/kg, po by immunohistochemistry analysis; assay type: functional, organism-based

Sequence of Vascular endothelial growth factor receptor 3 (P35916 whole entry): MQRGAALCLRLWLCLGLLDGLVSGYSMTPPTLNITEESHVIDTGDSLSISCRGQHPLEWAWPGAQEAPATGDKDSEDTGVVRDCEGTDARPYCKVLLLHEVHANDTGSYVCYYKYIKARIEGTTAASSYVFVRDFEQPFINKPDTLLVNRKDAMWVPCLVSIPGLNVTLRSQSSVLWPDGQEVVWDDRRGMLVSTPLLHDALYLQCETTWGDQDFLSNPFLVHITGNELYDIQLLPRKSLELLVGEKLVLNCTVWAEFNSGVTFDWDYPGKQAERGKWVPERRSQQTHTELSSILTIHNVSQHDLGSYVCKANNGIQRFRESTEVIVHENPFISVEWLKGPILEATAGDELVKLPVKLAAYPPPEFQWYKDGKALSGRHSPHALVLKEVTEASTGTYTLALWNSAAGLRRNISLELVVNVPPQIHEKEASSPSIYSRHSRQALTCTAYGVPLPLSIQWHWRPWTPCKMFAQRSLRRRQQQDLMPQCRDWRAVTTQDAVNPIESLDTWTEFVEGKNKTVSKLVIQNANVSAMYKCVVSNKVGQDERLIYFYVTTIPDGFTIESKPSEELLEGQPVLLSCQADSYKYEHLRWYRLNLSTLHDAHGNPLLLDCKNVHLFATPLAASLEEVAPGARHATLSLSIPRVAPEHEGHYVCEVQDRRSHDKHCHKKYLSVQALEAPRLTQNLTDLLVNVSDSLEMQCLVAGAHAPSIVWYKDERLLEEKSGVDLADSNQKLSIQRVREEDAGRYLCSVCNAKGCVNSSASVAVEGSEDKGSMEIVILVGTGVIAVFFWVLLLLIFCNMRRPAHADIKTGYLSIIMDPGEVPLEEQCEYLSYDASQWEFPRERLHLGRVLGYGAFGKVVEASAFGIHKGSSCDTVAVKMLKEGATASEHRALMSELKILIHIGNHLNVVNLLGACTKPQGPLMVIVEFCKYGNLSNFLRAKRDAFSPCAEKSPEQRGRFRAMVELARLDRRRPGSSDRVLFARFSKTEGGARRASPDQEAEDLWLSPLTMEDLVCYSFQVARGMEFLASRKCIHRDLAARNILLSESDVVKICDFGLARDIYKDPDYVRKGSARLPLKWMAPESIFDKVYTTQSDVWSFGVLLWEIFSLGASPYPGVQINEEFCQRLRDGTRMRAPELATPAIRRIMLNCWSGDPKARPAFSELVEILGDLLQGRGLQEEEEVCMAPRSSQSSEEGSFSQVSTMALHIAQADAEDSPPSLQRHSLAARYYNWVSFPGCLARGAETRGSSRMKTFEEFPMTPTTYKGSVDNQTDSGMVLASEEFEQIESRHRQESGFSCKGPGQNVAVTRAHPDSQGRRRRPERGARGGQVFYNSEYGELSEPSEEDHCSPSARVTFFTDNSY
Sequence of Tyrosine-protein kinase BTK (Q06187 whole entry): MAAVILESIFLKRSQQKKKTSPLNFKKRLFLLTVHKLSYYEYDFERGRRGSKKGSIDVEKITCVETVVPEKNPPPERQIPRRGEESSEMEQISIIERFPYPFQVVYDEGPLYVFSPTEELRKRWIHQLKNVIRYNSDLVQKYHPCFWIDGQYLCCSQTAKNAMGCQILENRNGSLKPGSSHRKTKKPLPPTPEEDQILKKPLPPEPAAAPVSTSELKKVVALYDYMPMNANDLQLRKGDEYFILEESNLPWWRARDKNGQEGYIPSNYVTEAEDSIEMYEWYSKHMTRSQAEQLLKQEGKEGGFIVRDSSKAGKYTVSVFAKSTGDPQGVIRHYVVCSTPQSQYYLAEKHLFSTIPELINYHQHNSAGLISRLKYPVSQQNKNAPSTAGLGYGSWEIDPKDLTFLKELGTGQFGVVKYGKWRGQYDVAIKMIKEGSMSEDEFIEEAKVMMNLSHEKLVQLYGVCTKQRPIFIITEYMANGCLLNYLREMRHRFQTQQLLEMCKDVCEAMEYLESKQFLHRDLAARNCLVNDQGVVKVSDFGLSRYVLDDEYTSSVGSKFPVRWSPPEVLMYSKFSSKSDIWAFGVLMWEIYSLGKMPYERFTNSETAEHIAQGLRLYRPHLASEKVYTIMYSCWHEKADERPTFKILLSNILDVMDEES
Sequence of Vascular endothelial growth factor receptor 3 (Mus musculus) (P35917 whole entry): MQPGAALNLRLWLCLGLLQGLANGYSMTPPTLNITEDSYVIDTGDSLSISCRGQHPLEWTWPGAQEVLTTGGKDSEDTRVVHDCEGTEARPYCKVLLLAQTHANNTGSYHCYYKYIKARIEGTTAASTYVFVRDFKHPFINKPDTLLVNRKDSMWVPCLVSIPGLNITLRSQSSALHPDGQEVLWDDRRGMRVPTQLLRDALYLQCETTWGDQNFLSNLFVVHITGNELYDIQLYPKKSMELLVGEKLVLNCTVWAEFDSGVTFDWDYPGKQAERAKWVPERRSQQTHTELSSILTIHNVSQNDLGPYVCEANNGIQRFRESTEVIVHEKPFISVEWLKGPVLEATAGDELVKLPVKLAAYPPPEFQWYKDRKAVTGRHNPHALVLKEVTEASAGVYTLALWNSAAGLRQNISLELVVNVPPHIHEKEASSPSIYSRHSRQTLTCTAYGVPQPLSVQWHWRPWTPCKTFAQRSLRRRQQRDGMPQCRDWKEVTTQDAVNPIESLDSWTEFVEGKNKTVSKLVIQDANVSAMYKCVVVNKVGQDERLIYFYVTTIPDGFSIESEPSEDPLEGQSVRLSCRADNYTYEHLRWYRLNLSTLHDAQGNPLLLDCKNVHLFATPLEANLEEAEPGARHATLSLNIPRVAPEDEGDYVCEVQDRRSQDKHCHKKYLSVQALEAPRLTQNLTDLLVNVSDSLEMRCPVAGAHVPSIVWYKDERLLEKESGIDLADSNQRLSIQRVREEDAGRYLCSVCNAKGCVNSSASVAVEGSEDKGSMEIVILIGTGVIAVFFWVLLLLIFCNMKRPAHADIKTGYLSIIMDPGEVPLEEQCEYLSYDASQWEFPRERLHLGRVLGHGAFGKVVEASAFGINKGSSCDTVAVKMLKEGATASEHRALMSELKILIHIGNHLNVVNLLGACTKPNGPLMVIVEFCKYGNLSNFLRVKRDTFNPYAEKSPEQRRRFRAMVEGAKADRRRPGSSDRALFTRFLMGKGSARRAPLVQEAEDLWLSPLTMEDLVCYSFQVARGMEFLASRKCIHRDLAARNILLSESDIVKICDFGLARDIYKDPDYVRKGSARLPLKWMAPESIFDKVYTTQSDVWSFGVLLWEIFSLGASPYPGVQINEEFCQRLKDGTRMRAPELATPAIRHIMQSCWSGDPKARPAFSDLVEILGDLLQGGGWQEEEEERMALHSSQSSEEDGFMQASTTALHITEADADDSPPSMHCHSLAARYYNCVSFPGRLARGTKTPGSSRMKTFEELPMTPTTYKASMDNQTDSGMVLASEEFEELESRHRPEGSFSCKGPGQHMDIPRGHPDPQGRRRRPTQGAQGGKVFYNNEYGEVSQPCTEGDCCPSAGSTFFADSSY

Which Activity [1] does the source give for `CN1CCN(c2ccc(-c3cc4c(N5CCN(C(=O)Nc6ccc(Cl)c(C(F)(F)F)c6)CC5)ncnc4s3)cc2)CC1` here?
Its Activity is “inactive”.

And the MTD [2]?
Its MTD is 300 mg/kg.

And the Activity (MDA-MB-231 [3])?
Its Activity is “Active”.

What about the Activity (MDA-MB-436 [4]) of the same compound?
The Activity was “Active”.

What about the Activity [5] of the same compound?
The Activity was “Non-Toxic”.

And the Activity (Mus musculus [6])?
The Activity was “Active”.

And the Activity [7]?
Its Activity is 19%.

What about the Activity (MDA-MB-231 [8]) of the same compound?
The Activity was “Active”.

What about the Activity (Mus musculus [9]) of the same compound?
The Activity was “Active”.

And the Activity (MDA-MB-436 [10])?
Its Activity is “Active”.

And the Activity (MDA-MB-436 [11])?
The Activity was “Active”.

What about the Activity [12] of the same compound?
Its Activity is “Non-Toxic”.

And the Activity (HDLEC)?
The Activity was “Active”.

What about the Activity (MDA-MB-436 [13]) of the same compound?
The Activity was “Active”.

What about the Activity [14] of the same compound?
The Activity was “Active”.

What about the inhibition (Danio rerio) of the same compound?
Its inhibition is “Active”.

And the Activity (MDA-MB-436 [15])?
Its Activity is “Dose-Dependent Effect”.

What about the inhibition [16] of the same compound?
Its inhibition is “Dose-Dependent Effect”.

And the Activity (Mus musculus [17])?
Its Activity is “Active”.

And the clearance [18]?
Its clearance is 0.288 L/h/kg.

What about the Activity (Mus musculus [19]) of the same compound?
The Activity was “Active”.
